Data from patent publication US20100254914A1, “NANOWORMS FOR IN VIVO TUMOR TARGETING” (THE REGENTS OF THE UNIVERSITY OF CALIFORNIA, priority 2009, published 2010).
Bridge positions count the residues as written; N and C are the ends. Ends that are not written are not given here.

What was measured:
MDA-MB-435 cells = test: In vitro cellular fluorescence imaging with heating, MDA-MB-435; assay type: cell-based, human; conditions: 20 min at 45° C. vs 37° C., then 2 hr at 37° C.
Protocol: (§1) In vitro cellular fluorescence imaging. The cells were treated with 80 ug Fe/mL of Cy5.5 labeled control NWs or LyP1NWs per well for 20 min at 37° C. or 45° C. in the presence of 10% FBS and incubated for an additional 2 hr at 37° C. in the presence of 10% FBS. The cells were then rinsed three times with cell medium, fixed, stained, and imaged by fluorescence microscopy.

C8161 cells = test: In vitro cellular fluorescence imaging with heating, C8161; assay type: cell-based; conditions: 20 min at 45° C. vs 37° C., then 2 hr at 37° C.
Protocol: as §1

MDA-MB-435 tumors [1] = test: In vivo temperature-induced tumor targeting of magnetic nanoworms, MDA-MB-435; parameters: species or system mice; conditions: 45° C. for 30 min, 24 hrs post-injection
Protocol: In vivo temperature-induced tumor targeting of magnetic nanoworms. Mice bearing bilateral MDA-MB-435 human carcinoma tumors were intravenously injected with Cy7-labeled LyP1NWs or NWs and one flank of the mouse (containing one of the tumors) was immediately heated at 45° C. for 30 min in a temperature-controlled water bath. At 24 hrs post-injection, the tissues were harvested and the Cy7 fluorescence in tissues were imaged using NIR fluorescence imaging system (LI-COR Odyssey).

C8161 tumors = test: In vivo temperature-induced tumor targeting of magnetic nanoworms, C8161; parameters: species or system mice; conditions: heated relative to unheated tumors
[2] = Hydrodynamic size by dynamic light scattering; assay type: physicochemical; conditions: Table 1
Text: The nanostructure appears as linearly aggregated IO cores with a mean hydrodynamic size (in the long dimension) of 65 nm (FIG. 1a and Table 2). When a higher molecular mass dextran (40 kDa) was used branched IO cores were obtained, with a larger average size (˜100 nm) and a broader size distribution (FIG. 5). […] NW show a slightly larger saturation magnetization value (74.2 emu/gFe vs. 61.5 emu/gFe and 53.5 emu/gFe) and a higher MR contrast (R2=116 mMFe^−1S^−1 vs R2=70 mMFe^−1S^−1 and R2=95 mMFe^−1S^−1) than NS and Feridex (FIG. 1b). […]
Blood half-life and biodistribution. To quantify the in vivo circulation times of NW or NS samples in Nude BALB/c mice (n=3-4 for each formulation), heparinized capillary tubes (Fisher) were used to draw 15 μL (for fluorescence) or 70 μl (for magnetization) of blood from the periorbital plexus at different times after intravenous injection of the NW or NS samples (1, 3, or 10 mg Fe/kg body mass). […] For Cy7-labeled NW or NS formulations, blood extracted at different times was imaged in a 96-well plate in Cy7 channel (762 nm excitation/800 nm emission) with a NIR fluorescence scanner (LI-COR biosciences, NE, USA). The images were analyzed using the ImageJ (NIH) or Osirix (Apple) programs. […] Organs and blood were immediately weighed, freeze-dried in gelatin capsules, and then analyzed for magnetization using SQUID.

MDA-MB-435 tumors [3] = test: In vivo tumor homing, MDA-MB-435 xenograft; parameters: species or system Nude BALB/c mice; conditions: for tumor uptake / targeting efficiency: 24 hrs post-injection
Protocol: (§2) In vivo tumor homing. MDA-MB-435 human breast carcinoma cells or HT1080 human fibrosarcoma cells (1×10^6) were injected into the mammary fat pad or subcutaneously injected into Nude BALB/c mice, respectively. Tumors were used when they reached ˜0.5 cm in size. Some 0.2 cm or 1 cm tumors were used to compare the dependence of tumor size on NW homing. Cy7-labed or non-labeled NW or NS were intravenously injected into mice (n=3˜8 for each formulation) with a dose of 1 mg Fe/kg body mass (for fluorescence studies) and 3 mg Fe/kg body mass (for magnetization studies). For real-time observation of tumor/liver uptake, animals were imaged under anesthesia in Cy7 channel using the BonSai fluorescence-imaging system (Siemens, Pa., USA) 6 hrs, 24 hrs or 48 hrs after injection. For NIR fluorescence imaging of organs, animals were sacrificed 24 hrs after the injection by cardiac perfusion with PBS under anesthesia, and organs were dissected and imaged in Cy7 channel with a NIR fluorescence scanner (LI-COR biosciences, NE, USA). All the NIR images for animals or organs were taken at the same exposure time. To quantify the amount of NW or NS homing, collected tumors were weighed, freeze-dried in gelatin capsules, and then analyzed for magnetization using SQUID. For histologic analysis, frozen sections of tumors were prepared. The sections were fixed with 4% paraformaldehyde and stained with DAPI for observation of NW or NS only. The rat anti-mouse CD-31 (1:50, BD PharMingen) and biotinylated mouse fibrin(ogen) antiserum (1:50, Nordic) were used for immunochemicostaining of tumor tissue sections. The corresponding secondary antibodies were added and incubated for 1 hour at room temperature: AlexaFluor-594 goat anti-rat or rabbit IgG (1:1,000; Molecular Probes), streptavidin Alexa Fluor 594 (1:1000; Molecular Probes). The slides were washed three times with PBS and mounted in Vectashield Mounting Medium with DAPI. At least three images from representative microscopic fields were analyzed for each tumor sample.

HT1080 tumors = test: In vivo tumor homing, HT1080 xenograft; parameters: species or system Nude BALB/c mice
Protocol: as §2, with “For histologic analysis, frozen sections of tumors were prepared. The sections were fixed with 4% paraformaldehyde and stained with DAPI for observation of NW or NS only. The rat anti-mouse CD-31 (1:50, BD PharMingen) and biotinylated mouse fibrin(ogen) antiserum (1:50, Nordic) were used for immunochemicostaining of tumor tissue sections. The corresponding secondary antibodies were added and incubated for 1 hour at room temperature: AlexaFluor-594 goat anti-rat or rabbit IgG (1:1,000; Molecular Probes), streptavidin Alexa Fluor 594 (1:1000; Molecular Probes). The slides were washed three times with PBS and mounted in Vectashield Mounting Medium with DAPI.” left out

p32 or gC1qR receptor = biological target: T1, p32 or gC1qR receptor (human, UniProt Q07021 74-282); test: fluorescence microscopy of MDA-MB-435 cells, colocalization with anti-p32 stain
T1 construct: whole, on cells; Endogenous p32 on MDA-MB-435 cells and tumors, stained with an anti-p32 antibody; also called p32 receptors
T1 sequence (looked up): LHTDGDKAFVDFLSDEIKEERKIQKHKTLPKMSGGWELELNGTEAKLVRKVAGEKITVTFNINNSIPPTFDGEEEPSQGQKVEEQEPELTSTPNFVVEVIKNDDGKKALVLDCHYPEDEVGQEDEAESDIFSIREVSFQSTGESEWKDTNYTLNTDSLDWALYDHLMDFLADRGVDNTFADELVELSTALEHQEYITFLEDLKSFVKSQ

[4] = compared with the other samples

Which “binding and internalization upon heating” value (MDA-MB-435 cells) does the source give for “LyP1NWs: LyP-1 peptide attached to Cy5.5-labeled aminated NWs via PEG crosslinker, ~40 peptides per nanoworm (CGNKRTRGC; disulfide 1-9 (inferred); not fully specified; printed as Cys-Gly-Asn-Lys-Arg-Thr-Arg-Gly-Cys; also: extra Cys added for conjugation, position not given here)” here?
Its value is “Significant quantities”.

And the “binding and internalization upon heating” value (C8161 cells)?
Its value is “lower heat-mediated internalization”.

What about the “targeting to heated tumors” value (MDA-MB-435 tumors [1]) of the same molecule?
The value was “prominent relative to unheated tumors”.

And the “homing to heated tumors” value (C8161 tumors)?
The value was “not significantly different”.

What does the source list for “NW-P175-C: NW with 175 amines to which CREKA is conjugated through a PEG spacer, 60 peptides (not fully specified; also: CREKA conjugated through PEG spacer to nanoworm with 175 amines, 60 peptides (attachment site not given here))”?
Size [nm] (mean hydrodynamic size) [2]: 85.0 nm; tumor uptake / targeting efficiency (MDA-MB-435 tumors [3]): significantly higher levels of uptake; tumor uptake / targeting efficiency (MDA-MB-435 tumors [3]; listed as NW-P-175-C): best; tumor:liver ratio (NIR fluorescence) (MDA-MB-435 tumors [3]; [4]): significant increases; tumor uptake / targeting efficiency (HT1080 tumors; 24 hrs post-injection): best; tumor:liver ratio (NIR fluorescence) (HT1080 tumors; [4]): significant increases

Which “tumor uptake / targeting efficiency” value (MDA-MB-435 tumors [3]) does the source give for “NW-P-C: PEGylated CREKA-conjugated NW (family; ~60 CREKA peptides in the comparison) (not fully specified; also: CREKA conjugated via PEG to nanoworms (attachment site not given here))” here?
Its value is “significantly greater”.

B1: LyP-1 peptide-conjugated magnetic nanoworms (LyP1NWs) (peptide)
peptide: CGNKRTRGC
modifications: disulfide 1-9 (inferred); not fully specified; printed as Cys-Gly-Asn-Lys-Arg-Thr-Arg-Gly-Cys; also: peptide is cyclic, conjugated via PEG crosslinker to Cy5.5-labeled dextran iron oxide nanoworm, extra Cys added for conjugation, position not given here
notes: also called Lyp1-conjugated Cy5.5-labeled magnetic nanoworms; LyP1-conjugated NWs
Does B1 bind (p32 or gC1qR receptor)?
Result: binds
